We go through 26 compounds from patent US5874432A, “Saccharin derivatives useful as proteolytic enzyme inhibitors and compositions and method of use thereof” (priority 1997, dated 1999).

Experiment [1] has as its target T1, human leukocyte elastase (Homo sapiens, UniProt P08246).
T1 sequence (P08246 30-267): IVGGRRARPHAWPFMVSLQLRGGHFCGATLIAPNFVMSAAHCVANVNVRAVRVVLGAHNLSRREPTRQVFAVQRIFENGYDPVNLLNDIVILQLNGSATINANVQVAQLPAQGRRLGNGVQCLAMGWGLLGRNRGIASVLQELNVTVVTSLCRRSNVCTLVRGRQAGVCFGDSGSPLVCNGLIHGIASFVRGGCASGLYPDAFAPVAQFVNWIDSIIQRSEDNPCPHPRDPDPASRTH
Kind of experiment: elastase inhibition using human leukocyte elastase (kon and Ki*). The following applies: for Ki: Ki* = koff/kon; for kon: read-out: Elastase 10^-3 × kon. The format is biochemical.

Experiment [2] addresses α-Chymotrypsin (Bos taurus, UniProt P00766). Briefly: α-chymotrypsin inhibition (kon and Ki*). It is filed as biochemical. The settings on record: for Ki: Ki* = koff/kon. As for the experimental part: Measurement of the inhibition constant, Ki, of a HLE-inhibitor complex has been described for "truly reversible inhibition constants" usually concerning competitive inhibitors. [Cha, Biochem. Pharmacol., 24, 2177-2185 (1975)]. […] Thus, instead of measuring a Ki, a Ki * is calculated which is defined as the ratio of the koff /kon, the rate of reactivation of the enzyme to the rate of inactivation of the enzyme. The values of koff and kon are measured and Ki * is then calculated. The rate of inactivation, kon, of enzymatic activity was determined for the compounds tested by measuring the enzyme activity of an aliquot of the respective enzyme as a function of time after addition of the test compound. […] The rate of inactivation is then equal to [formula] where [I] is the concentration of the inhibiting compound. The reactivation constant, koff, is similarly determined and the inhibition constant, Ki *, is then calculated as Ki *=koff /kon The values obtained for kon and Ki * for specific substituted saccharin derivatives are shown in TABLE F, the compounds being identified by the Example numbers above where their preparations are described.

The mark [3] stands for this setting: rate of inactivation of enzyme, value is 10^-3 × kon.
Setting [4] is: read-out: α-Chymotrypsin 10^-3 × kon.

Where two headings read alike, the source gives them in different places.

As for `O=C1c2ccccc2S(=O)(=O)N1C[S+]([O-])c1ncccn1` (stereo not shown) [Example 13, 2-(2-pyrimidylsulfinylmethyl)saccharin], the results for the Ki in experiment [1] (read-out: Elastase Ki *) and in experiment [2] were 285 nM and 423 nM, respectively. For the same compound, the kon – broadly, the second-order rate constant of association – in experiment [1] (setting [3]) came to 300 M⁻¹ s⁻¹; in experiment [2] (setting [4]) it was 2600 M⁻¹ s⁻¹.

For `CC(=O)Nc1cccc(-n2nnnc2SCN2C(=O)c3ccccc3S2(=O)=O)c1` [Example 6, 2-[1-(3-acetamidophenyl)-1H-tetrazol-5-ylthiomethyl]saccharin], the inhibition constant Ki (in general, a dissociation constant, usually derived from enzyme kinetics or from competition with a known ligand) turned out to be 15 nM in experiment [1] (read-out: Elastase Ki *) and 300 nM in experiment [2]. The kon in experiment [1] (setting [3]) was 5500 M⁻¹ s⁻¹; in experiment [2] (setting [4]), 3700 M⁻¹ s⁻¹.

Regarding `O=C1c2c(Cl)cccc2S(=O)(=O)N1Cn1nnn(-c2ccccc2)c1=S` [Example 5, 4-chloro-2-(4-phenyl-5-thioxotetrazolin-1-ylmethyl)saccharin], the Ki came out at 6 nM in experiment [1] (read-out: Elastase Ki *) and 25 nM in experiment [2]. For the same compound, the kon worked out at 44000 M⁻¹ s⁻¹ in experiment [1] (setting [3]) and 6000 M⁻¹ s⁻¹ in experiment [2] (setting [4]).

Regarding `O=C1c2c(Cl)cccc2S(=O)(=O)N1CCl` [Example 3, 2-chloromethyl-4-chlorosaccharin], the results for the Ki in experiment [1] (read-out: Elastase Ki *) and in experiment [2] were 0.5 nM and 26 nM, respectively. Also, the kon amounted to 450000 M⁻¹ s⁻¹ in experiment [1] (setting [3]) and 5800 M⁻¹ s⁻¹ in experiment [2] (setting [4]).

With `O=C1c2ccccc2S(=O)(=O)N1CS(=O)(=O)c1ncccn1` [Example 14, 2-(2-pyrimidylsulfonylmethyl)saccharin], the values for the Ki in experiment [1] (read-out: Elastase Ki *) and in experiment [2] were 138 nM and 392 nM, respectively. In addition, the association rate constant (kon) amounted to 600 M⁻¹ s⁻¹ in experiment [1] (setting [3]) and 2800 M⁻¹ s⁻¹ in experiment [2] (setting [4]).

For `CC(=O)OCN1C(=O)c2c(Cl)cccc2S1(=O)=O` [Example 2, 2-acetoxymethyl-4-chlorosaccharin], the Ki is 45 nM in experiment [1] (read-out: Elastase Ki *) and 51 nM in experiment [2]. Moreover, the on-rate (kon) amounted to 4900 M⁻¹ s⁻¹ in experiment [1] (setting [3]) and 2900 M⁻¹ s⁻¹ in experiment [2] (setting [4]).

With `O=C1c2ccccc2S(=O)(=O)N1CS(=O)(=O)c1ccccc1` [Example 12, 2-(phenylsulfonylmethyl)saccharin], the Ki in experiment [1] (read-out: Elastase Ki *) came out at 82 nM; in experiment [2], 1000 nM. For the same compound, the figures for the kon in experiment [1] (setting [3]) and in experiment [2] (setting [4]) were 970 M⁻¹ s⁻¹ and 1100 M⁻¹ s⁻¹, respectively.

`Cn1nnnc1SCN1C(=O)c2ccccc2S1(=O)=O` [Example 8, 2-(1-methyl-1H-tetrazol-5-ylthiomethyl)saccharin]: the kon in experiment [1] (setting [3]) came out at 1000 M⁻¹ s⁻¹; in experiment [2] (setting [3]), 2100 M⁻¹ s⁻¹. The affinity in experiment [2] corresponds to a Ki of 523 nM.

`O=C1c2ccccc2S(=O)(=O)N1CSc1nnnn1C1CCCCC1` [Example 9, 2-(1-cyclohexyl-1H-tetrazol-5-ylthiomethyl)saccharin]: the kon in experiment [1] (setting [3]) was 2500 M⁻¹ s⁻¹.

Consider `CCOC(=O)Cn1nnnc1SCN1C(=O)c2ccccc2S1(=O)=O` [Example 30AP], for which the inhibition constant (Ki) in experiment [1] (read-out: Elastase Ki *) amounted to 51 nM. For the same compound, the on-rate constant (kon) in experiment [1] (setting [3]) was 1300 M⁻¹ s⁻¹.

For the compound `CCC(CC)c1cccc2c1C(=O)N(CCl)S2(=O)=O` [Example 22C, 2-chloromethyl-4-(3-pentyl) saccharin], the Ki in experiment [1] (read-out: Elastase Ki *) came to 0.4 nM. Further, in experiment [1] (setting [3]), the kon was 105000 M⁻¹ s⁻¹.

In the case of `O=C1c2ccccc2S(=O)(=O)N1CSc1nnc(SCCN2CCCCC2)s1` [Example 33C, 2-(5-[2-(1-piperidinyl)-ethylthio]-1,3,4-thiadiazol-2-ylthiomethyl)saccharin], the inhibition constant Ki in experiment [1] (read-out: Elastase Ki *) amounted to 350 nM. Moreover, the association rate constant (kon) in experiment [1] (setting [3]) is 200 M⁻¹ s⁻¹.

`Nc1cccc(-n2nnnc2SCN2C(=O)c3ccccc3S2(=O)=O)c1` [Example 30C]: the Ki in experiment [1] (read-out: Elastase Ki *) came out at 17 nM. Besides, the kon in experiment [1] (setting [3]) stood at 2500 M⁻¹ s⁻¹.

Turning to `Cc1nnc(SCN2C(=O)c3c(C(C)C)cccc3S2(=O)=O)s1` [Example 30AM], in experiment [1] (read-out: Elastase Ki *), the inhibition constant (Ki) amounted to 4.5 nM. Also, in experiment [1] (setting [3]), the kon is 12300 M⁻¹ s⁻¹.

Regarding `CC(C)c1cccc2c1C(=O)N(CN1C(=O)CNS1(=O)=O)S2(=O)=O` [Example 42D], the Ki in experiment [1] (human leukocyte elastase, read-out: Ki * values, elastase inhibition (Examples 41-57)) was determined as 1000 nM.

`CCOc1cccc2c1C(=O)N(CCl)S2(=O)=O` [Example 22H]: the inhibition constant Ki in experiment [1] (read-out: Elastase Ki *) came out at 1.2 nM. The kon in experiment [1] (setting [3]) was 25000 M⁻¹ s⁻¹.

For the compound `CC(=O)OCN1C(=O)c2c(C)cccc2S1(=O)=O` [Example 1, 2-acetoxymethyl-4-methylsaccharin], the results for the Ki in experiment [1] (read-out: Elastase Ki *) and in experiment [2] were 102 nM and 917 nM, respectively. Further, the values for the kon in experiment [1] (setting [3]) and in experiment [2] (setting [4]) were 630 M⁻¹ s⁻¹ and 1200 M⁻¹ s⁻¹, respectively.

`COc1cccc2c1C(=O)N(CCl)S2(=O)=O` [Example 22A, 2-chloromethyl-4-methoxysaccharin]: in experiment [1] (read-out: Elastase Ki *), the inhibition constant Ki was 6 nM. Besides, the kon in experiment [1] (setting [3]) stood at 12400 M⁻¹ s⁻¹.

Take `O=C1c2ccccc2S(=O)(=O)N1CSc1nnnn1CCN1CCOCC1` [Example 30BG]: the inhibitory constant (Ki) in experiment [1] (read-out: Elastase Ki *) amounted to 50 nM. Also, in experiment [1] (setting [3]), the kon is 1700 M⁻¹ s⁻¹.

Consider `O=C1c2c(-c3ccccc3)cccc2S(=O)(=O)N1CCl` [Example 18, 2-chloromethyl-4-phenylsaccharin], for which the Ki in experiment [1] (read-out: Elastase Ki *) amounted to 100 nM; in experiment [2], 620 nM. Besides, the on-rate (kon) in experiment [1] (setting [3]) came to 1000 M⁻¹ s⁻¹; in experiment [2] (setting [4]), 210 M⁻¹ s⁻¹.

For the compound `O=C1c2ccccc2S(=O)(=O)N1C[S+]([O-])c1nnnn1-c1ccccc1` (stereo not shown) [Example 10, 2-(1-phenyl-1H-tetrazol-5-ylsulfinylmethyl)saccharin], the inhibition constant Ki in experiment [1] (read-out: Elastase Ki *) turned out to be 11 nM; in experiment [2], 157 nM. Further, the kon in experiment [1] (setting [3]) and in experiment [2] (setting [4]) was 7000 M⁻¹ s⁻¹ throughout.

In the case of `O=C1c2c(Br)cccc2S(=O)(=O)N1CCl` [Example 21, 2-chloromethyl-4-bromosaccharin], the Ki in experiment [1] (read-out: Elastase Ki *) is 0.5 nM. The kon in experiment [1] (setting [3]) was 950000 M⁻¹ s⁻¹.

Consider `O=C1c2ccccc2S(=O)(=O)N1CSc1nnc(S)s1` [Example 30AH], for which the Ki in experiment [1] (read-out: Elastase Ki *) is 60 nM. Moreover, the on-rate constant (kon) in experiment [1] (setting [3]) turned out to be 1100 M⁻¹ s⁻¹.

Take `Cn1nnc(=S)n1CN1C(=O)c2ccccc2S1(=O)=O` [Example 30W]: in experiment [1] (read-out: Elastase Ki *), the Ki was 80 nM. The “Elastase 10^-3 × kon” value in experiment [1] (setting [3]) stood at 1.5 M^-1 sec^-1.

Consider `COC(=O)c1cn(-c2ccccc2)c(SCN2C(=O)c3ccccc3S2(=O)=O)n1` [Example 30AR], for which the Ki in experiment [1] (read-out: Elastase Ki *) worked out at 153 nM. The kon in experiment [1] (setting [3]) amounted to 300 M⁻¹ s⁻¹.

On to `O=C1c2c(-c3ccccc3)cccc2S(=O)(=O)N1CSc1nnnn1-c1ccccc1` [Example 30BC], for which the kon in experiment [1] (setting [3]) worked out at 5800 M⁻¹ s⁻¹.
